# According to article PMC11746142, “Structural plasticity of bacterial ESCRT-III protein PspA in higher-order assemblies” (Nature Structural & Molecular Biology, 2024):
# Assays:
# [1] = target: T1, PspA (SynPspA, PspA wild type, slr1188) (Synechocystis sp. PCC 6803, UniProt P74717); experiment: cryo-EM structure of helical rods; format: binding; settings: rods refolded with 2 mM ATP, 4 mM MgCl2; ADP modelled in weak density, incomplete occupancy; site near α3/α4 loop between four chains; 180, 200, 215, 235 Å rods
# T1 construct: gene im30; 28 kDa band
# [2] = target: T1, PspA (SynPspA, PspA wild type, slr1188); experiment: inhibition of ATPase activity; format: biochemical; settings: high concentration needed; against ATP hydrolysis; non-hydrolysable analogue
# [3] = target: T1, PspA (SynPspA, PspA wild type, slr1188); experiment: inhibition of ATPase activity; format: biochemical; settings: high concentration needed; against ATP hydrolysis; non-hydrolysable analogue; remark: listed apart in the source
# [4] = target: T2, PspA (SynPspA, PspA wild type, slr1188) (Synechocystis sp. PCC 6803, UniProt P74717, R44K/E126Q/E179Q); experiment: bound nucleotide by HPLC-MS/MS after washing; malachite-green ATPase; format: biochemical; settings: 2 mM ATP, 4 mM MgCl2, 10 mM Tris-HCl pH 8.0, 37 °C, 24 h
# T2 construct: gene im30; 28 kDa band
# [5] = target: T1, PspA (SynPspA, PspA wild type, slr1188); experiment: malachite-green phosphate release; ADP-Glo; bound nucleotide by HPLC-MS/MS; format: biochemical; settings: 2 mM ATP, 4 mM MgCl2, 10 mM Tris-HCl pH 8.0, 37 °C
# PspA α1–α5 = target: T3, PspA α1–α5 (Synechocystis sp. PCC 6803, UniProt P74717); experiment: malachite-green phosphate release; ADP-Glo; format: biochemical; settings: 2 mM ATP, 4 mM MgCl2, 10 mM Tris-HCl pH 8.0, 37 °C
# T3 construct: gene im30; helix α0 removed (amino acids 1-23 in Methods; 'first 22 amino acids' in Results); 25 kDa band
# PspF(1–275) (EcoPspF) = target: T4, PspF(1–275) (EcoPspF) (Escherichia coli, UniProt P37344); experiment: ATPase activity; format: biochemical; settings: comparison ATPase
# T4 construct: residues 1-275, E. coli BL21 (DE3), pET50(b)-derived plasmid, Ni-NTA purified
# T4 sequence (P37344 1-275): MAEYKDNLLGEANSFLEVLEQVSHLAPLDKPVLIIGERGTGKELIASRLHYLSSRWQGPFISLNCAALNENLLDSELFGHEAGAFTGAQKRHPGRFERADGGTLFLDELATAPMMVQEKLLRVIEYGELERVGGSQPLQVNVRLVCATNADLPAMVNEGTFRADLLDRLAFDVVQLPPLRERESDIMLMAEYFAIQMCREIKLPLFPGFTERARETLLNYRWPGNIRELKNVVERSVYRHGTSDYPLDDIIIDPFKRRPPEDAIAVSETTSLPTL
# T1 sequence (P74717 entry or part of it): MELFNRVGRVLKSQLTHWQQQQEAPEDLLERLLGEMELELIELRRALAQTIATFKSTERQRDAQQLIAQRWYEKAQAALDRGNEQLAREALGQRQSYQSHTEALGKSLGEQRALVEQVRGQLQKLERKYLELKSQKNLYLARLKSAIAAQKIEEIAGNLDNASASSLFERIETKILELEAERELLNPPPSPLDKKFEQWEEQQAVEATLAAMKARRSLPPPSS
# T3 sequence (P74717 entry or part of it): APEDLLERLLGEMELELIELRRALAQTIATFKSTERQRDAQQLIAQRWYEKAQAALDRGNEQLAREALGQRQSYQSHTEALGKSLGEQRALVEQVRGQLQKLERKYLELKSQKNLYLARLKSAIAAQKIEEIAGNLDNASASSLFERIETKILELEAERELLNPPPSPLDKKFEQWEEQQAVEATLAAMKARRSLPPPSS
# T2 sequence (P74717 entry or part of it R44K/E126Q/E179Q): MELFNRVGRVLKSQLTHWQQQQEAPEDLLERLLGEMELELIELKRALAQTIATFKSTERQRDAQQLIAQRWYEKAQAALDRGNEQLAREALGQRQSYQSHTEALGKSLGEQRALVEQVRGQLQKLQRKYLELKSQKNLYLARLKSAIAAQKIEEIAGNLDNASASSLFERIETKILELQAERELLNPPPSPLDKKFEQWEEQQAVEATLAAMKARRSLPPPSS
structure (smiles),measurement,setting,value
Nc1ncnc2c1ncn2[C@@H]1O[C@H](COP(=O)(O)OP(=O)(O)O)[C@@H](O)[C@H]1O [ADP],cryo-EM structure of helical rods,[1],Models of PspA apo (PDB:7ABK) and PspA+ATP with an ADP model fitted
Nc1ncnc2c1ncn2[C@@H]1O[C@H](COP(=O)(O)OP(=O)(O)CP(=O)(O)O)[C@@H](O)[C@H]1O [AMPPCP],ATPase activity vs AMPPCP concentration,[2],could be decreased by high concentrations of ATPase inhibitors such as ATPγS or AMPPCP
Nc1ncnc2c1ncn2[C@@H]1O[C@H](COP(=O)(O)OP(=O)(O)OP(O)(O)=S)[C@@H](O)[C@H]1O [ATPγS],ATPase activity vs ATPγS concentration,[3],could be decreased by high concentrations of ATPase inhibitors such as ATPγS or AMPPCP
Nc1ncnc2c1ncn2[C@@H]1O[C@H](COP(=O)(O)OP(=O)(O)OP(=O)(O)O)[C@@H](O)[C@H]1O [ATP],bound nucleotide by HPLC-MS/MS after washing; malachite-green ATPase,[4],R44K/E126Q/E179Q mutant was still capable of ATP binding and hydrolysis
same,malachite-green phosphate release; ADP-Glo; bound nucleotide by HPLC-MS/MS,[5],PspA can bind and hydrolyze ATP
same,malachite-green phosphate release; ADP-Glo,PspA α1–α5,did not significantly reduce the ATPase activity
same,ATPase activity,PspF(1–275) (EcoPspF),"approximately ten times lower than bona fide AAA+ ATPases, such as E. coli PspF"
